{"source": "paper PMC7287031", "about": "(Pharmacology Research & Perspectives, 2020)", "key": {"human liver microsomes [1]": {"tested_on": "human liver microsomes", "experiment": "Kinetic analysis of ribociclib metabolite formation in HLM and enzyme contribution", "assay_type": "in vitro ADME", "settings": "metabolite formation kinetics", "protocol": "(§1) In vitro incubations were carried out in 100‐mM potassium phosphate buffer (pH 7.4) and 5‐mM MgCl2 with a total volume of 200 µL. Substrate and either human liver microsomes (HLM, BD Biosciences, mixed gender pool of n = 50) or recombinant human enzymes (BD Biosciences) were added and pre‐incubated for 3 minutes at 37°C. The reaction was started by addition of a fresh solution of NADPH (1 mmol/L final concentration). The samples were incubated at 37°C with agitation of 500 rpm. For incubations with CYP2A6, CYP2C9, CYP2C18, and CYP4A11, the phosphate buffer was replaced by TRIS buffer (100 mmol/L, pH 7.4) and for flavin‐containing monooxygenases (FMOs), a glycine buffer (50 mM, pH 9.5) was used.\n(§2) The enzymatic reaction was stopped and the protein was precipitated by addition of an equal volume of methanol. […] The supernatant was withdrawn. Aliquots were analyzed by LSC and the supernatant was diluted with water to obtain a final solution containing less than 20% of the organic solvent. For samples of low substrate concentration, supernatants were evaporated to dryness under nitrogen, then re‐suspended in water containing less than 20% of methanol. Samples were analyzed by HPLC combined with radiodetection.\n(§3) Km and Vmax parameters were calculated by using SigmaPlot Version 8.0, Enzyme Kinetics module Version 1.1 software (SPSS Science Inc, Chicago, IL, USA). The intrinsic clearance was calculated by the equation: CLint = Vmax/Km.\n(§4) The intrinsic clearances (Vmax/Km) of each pathway were determined by enzyme kinetics."}, "[2]": {"experiment": "Kinetic analysis of ribociclib metabolite formation in HLM and enzyme contribution", "assay_type": "in vitro ADME, human", "settings": "both sexes, human, pooled human liver microsomes, pH 7.4; HLM, sum of metabolite formation; read-out: CLint, Total of all pathways", "protocol": "as §1, §2, §3, §4"}, "CYP3A4": {"tested_on": "CYP3A4", "experiment": "Kinetic analysis of ribociclib metabolite formation in HLM and enzyme contribution", "assay_type": "in vitro ADME, human", "settings": "both sexes, human, pooled human liver microsomes, pH 7.4; HLM; read-out: CLint attributed to CYP3A4", "protocol": "as §1, §2, §3, §4"}, "FMO3": {"tested_on": "FMO3", "experiment": "Kinetic analysis of ribociclib metabolite formation in HLM and enzyme contribution", "assay_type": "in vitro ADME, human", "settings": "both sexes, human, pooled human liver microsomes, pH 7.4; HLM; read-out: CLint attributed to FMO3", "protocol": "as §1, §2, §3, §4"}, "[3]": {"experiment": "Human ADME study: total radioactivity PK in blood and plasma (AMS)", "assay_type": "in vivo", "settings": "single oral 600 mg [14C] ribociclib, N=6", "protocol": "Subjects continued to fast for 4 hours after drug administration. […] Urine was collected from 0‐6, 6‐12, and 12‐24 h post dose, then over 24‐hour intervals until 504 hours post dose. Feces was collected over 24‐h intervals until 504 hours post dose, during which time the volunteers were confined to the clinic. Vomitus was also scheduled to be collected for 12 hours post dosing. However, no volunteers vomited during the study. […] Electrostatics Corporation 1.5SDH Compact AMS System (Middleton) in the bioanalytical laboratory of Accium BioSciences, Seattle, WA, USA. A known aliquot of each blood and plasma specimen was transferred to a prebaked quartz tube. […] An AMS batch consisted of unknown specimens and chemical blank(s) to monitor for any in‐process contamination. The samples were then dried using vacuum centrifugation and submitted to graphitization. Graphitization consisted of combustion of samples followed by reduction to graphite according to published methods. ^12 Briefly, approximately 200‐mg copper oxide was added to each combustion tube containing the dried sample residue. The combustion tubes were flame‐sealed under vacuum and combusted at approximately 900°C to form carbon dioxide (CO2). Combusted samples were then attached to a disposable transfer system connected to a septa‐sealed vial. […]"}, "human liver microsomes [4]": {"tested_on": "human liver microsomes", "experiment": "Enzyme kinetics of total oxidative metabolism in pooled human liver microsomes", "assay_type": "in vitro ADME", "settings": "pooled HLM, Michaelis-Menten model", "protocol": "as §1\n(§5) The enzymatic reaction was stopped and the protein was precipitated by addition of an equal volume of methanol. After 30 min at −80°C, the samples were centrifuged at 30'000 x g for 15 min. The supernatant was withdrawn. Aliquots were analyzed by LSC and the supernatant was diluted with water to obtain a final solution containing less than 20% of the organic solvent. […] Samples were analyzed by HPLC combined with radiodetection.\nas §3"}, "[5]": {"experiment": "Enzyme kinetics of total oxidative metabolism in pooled human liver microsomes", "assay_type": "in vitro ADME", "settings": "both sexes, human, pooled human liver microsomes, pH 7.4; pooled HLM, Michaelis-Menten model", "protocol": "as §1, §5, §3"}}, "data": [{"smiles": "CN(C)C(=O)c1cc2cnc(Nc3ccc(N4CCNCC4)cn3)nc2n1C1CCCC1", "note": "[ribociclib, Ribociclib]", "values": [{"measurement": "fm (Rel. Clint), CYP3A4 share of oxidative metabolism in HLM", "setting": "human liver microsomes [1]", "value": 74, "unit": "%"}, {"measurement": "fm (Rel. Clint), FMO3 / hepatic FMO share of oxidative metabolism in HLM", "setting": "human liver microsomes [1]", "value": 26, "unit": "%"}, {"measurement": "microsomal CLint", "setting": "[2]", "value": 31.5, "unit": "µL/min/mg"}, {"measurement": "microsomal CLint", "setting": "CYP3A4", "value": 23.3, "unit": "µL/min/mg"}, {"measurement": "microsomal CLint", "setting": "FMO3", "value": 8.19, "unit": "µL/min/mg"}, {"measurement": "tlast of total radioactivity, median", "setting": "[3]; human blood", "value": 504, "unit": "h"}, {"measurement": "tlast of total radioactivity, median", "setting": "[3]; human plasma", "value": 504, "unit": "h"}, {"measurement": "Vmax, total metabolism", "setting": "human liver microsomes [4]", "value": "766 ± 13", "unit": "pmol/min/mg"}, {"measurement": "Km", "setting": "[5]", "value": "29.1 ± 1.8", "unit": "µM"}]}]}
